Measurements reported in patent US8455014B2, “Composition comprising Trachelospermi caulis and Pyrola japonica extracts for the treatment and prevention of inflammatory diseases” (Sinil Pharmaceutical Co., Ltd., priority 2007, dated 2013).

Assays:
TNF-α = details: Int Immunopharmacol. 2004; 4(10-11):1419-29; cited from earlier work
NF-κB = details: human keratinocytes; J Dermatol Sci. 2003; 31(3):193-201; cited from earlier work
[1] = tested on: vascular permeability induced by acetic acid; test: Acetic acid-induced vascular permeability in mice; format: in vivo, ICR mice; details: Evans blue in abdominal cavity, OD 630 nm
Procedure: The inhibitory effect of the mixed herbal extract obtained in the above reference example 3 against vascular permeability was investigated.
Seven week old ICR mice were separated into each experimental group, orally administered with Trachelospermi caulis extract at a concentration of 20 mg/kg and 200 mg/kg, respectively, Pyrola japonica extract at a concentration of 20 mg/kg and 200 mg/kg, respectively, and a mixed […], respectively, after dissolving them in distilled water to a concentration of 0.1 mL/10 g b.wt., by using a sonde.
The dosage volume was determined based on the body weight measured on the day of experiment and the control group was only administered with distilled water, a preparation solvent, at a concentration of 0.1 mL/10 g b.wt. Phenylbutazone was orally administered with a dosage of 50 mg/kg b.wt. after suspending it in 0.5% methyl cellulose.
ICR male mice, which were fasted for 12 hours prior to the experiment, were administered with a test substance according to the method of Whittle (1964). […] The washing solution was collected from the abdominal cavity and then centrifuged at 2,000 rpm for 10 minutes and the supernatant was measured of its optical density at 630 nm by using a spectrophotometer to calculate the amount of Evan's blue solution flowed into the abdominal cavity. […]

In the case of COc1ccc(C[C@H]2COC(=O)[C@@H]2Cc2ccc(O[C@@H]3O[C@H](CO)[C@@H](O)[C@H](O)[C@H]3O)c(OC)c2)cc1OC [arctiin], the TNF-α inhibitory activity (TNF-α) is listed as “TNF-α inhibitory activity”.

In the case of COc1cc(C[C@H]2C(=O)OC[C@@H]2Cc2ccc(OC)c(OC)c2)ccc1O [arctigenin], the TNF-α inhibitory activity (TNF-α) is given as “TNF-α inhibitory activity”.

In the case of OC[C@H]1O[C@@H](Oc2ccc(O)cc2)[C@H](O)[C@@H](O)[C@@H]1O [Arbutin], the “activity of NF-κB” value (NF-κB) is given as “inhibit the activity of NF-κB”.

With CCCCC1C(=O)N(c2ccccc2)N(c2ccccc2)C1=O [phenylbutazone] the Leakage of dye ([1]; 50 mg/kg oral) was 39.0 ± 3.45 μg/10 g b. wt.

COc1ccc2c(c1)c(CC(=O)O)c(C)n2C(=O)c1ccc(Cl)cc1 [indomethacin] showed a Leakage of dye ([1]; 1 mg/kg) of 36.3 ± 2.67 μg/10 g b. wt.
